Laboratory results as given in patent US20240269139A1, “COMPOUNDS FOR TARGETED PROTEIN DEGRADATION OF KINASES” (DANA-FARBER CANCER INSTITUTE, INC., priority 2020, published 2024).
“Also recorded” adds a separate entry of the source. Where two headings read alike, the source gives them in different places.

What was measured:
[1] = molecular target: protein kinases (human kinome) (Homo sapiens, UniProt O43683); format: cell-based; details: for logFC: BUB1 (O43683); for logFC BUB1 (O43683): direction down
[2] = molecular target: protein kinases (human kinome) (Homo sapiens, UniProt P11802); format: cell-based; details: experiment wp152
[3] = molecular target: protein kinases (human kinome) (Homo sapiens, UniProt P35790); format: cell-based; details: CHKA P35790; experiment wp152
[4] = molecular target: T1, protein kinases (human kinome) (Homo sapiens, UniProt P42680); format: cell-based; details: TEC (P42680), experiment wp134
T1 sequence (P42680 1-631): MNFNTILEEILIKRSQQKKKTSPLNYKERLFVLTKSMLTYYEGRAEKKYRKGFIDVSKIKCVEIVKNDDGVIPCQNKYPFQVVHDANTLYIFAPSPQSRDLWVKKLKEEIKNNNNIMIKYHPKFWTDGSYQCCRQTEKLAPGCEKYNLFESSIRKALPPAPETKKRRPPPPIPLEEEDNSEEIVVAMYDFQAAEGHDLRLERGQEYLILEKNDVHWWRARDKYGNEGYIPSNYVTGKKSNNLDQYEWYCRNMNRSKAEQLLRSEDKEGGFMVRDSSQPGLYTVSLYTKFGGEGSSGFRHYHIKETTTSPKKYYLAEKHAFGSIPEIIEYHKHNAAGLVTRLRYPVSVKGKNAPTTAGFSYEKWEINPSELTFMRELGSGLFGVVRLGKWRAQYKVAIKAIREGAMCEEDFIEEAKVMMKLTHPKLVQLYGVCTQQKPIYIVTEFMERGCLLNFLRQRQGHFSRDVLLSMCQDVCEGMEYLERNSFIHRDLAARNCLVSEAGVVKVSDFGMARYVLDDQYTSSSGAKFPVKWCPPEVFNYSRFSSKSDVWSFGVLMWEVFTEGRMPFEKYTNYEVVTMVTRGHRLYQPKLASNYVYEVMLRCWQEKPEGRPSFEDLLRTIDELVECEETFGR

[5] = molecular target: protein kinases (human kinome) (Homo sapiens, UniProt P51451); format: cell-based; details: for logFC BLK: BLK (P51451), direction down; for logFC of BLK (P51451): down
[6] = molecular target: protein kinases (human kinome) (Homo sapiens, UniProt P53671); format: cell-based; details: experiment wp152
[7] = molecular target: protein kinases (human kinome) (Homo sapiens, UniProt Q07912); format: cell-based
[8] = molecular target: T2, protein kinases (human kinome) (Homo sapiens, UniProt Q8TAS1); format: cell-based; details: experiment wp134
T2 sequence (Q8TAS1 1-419): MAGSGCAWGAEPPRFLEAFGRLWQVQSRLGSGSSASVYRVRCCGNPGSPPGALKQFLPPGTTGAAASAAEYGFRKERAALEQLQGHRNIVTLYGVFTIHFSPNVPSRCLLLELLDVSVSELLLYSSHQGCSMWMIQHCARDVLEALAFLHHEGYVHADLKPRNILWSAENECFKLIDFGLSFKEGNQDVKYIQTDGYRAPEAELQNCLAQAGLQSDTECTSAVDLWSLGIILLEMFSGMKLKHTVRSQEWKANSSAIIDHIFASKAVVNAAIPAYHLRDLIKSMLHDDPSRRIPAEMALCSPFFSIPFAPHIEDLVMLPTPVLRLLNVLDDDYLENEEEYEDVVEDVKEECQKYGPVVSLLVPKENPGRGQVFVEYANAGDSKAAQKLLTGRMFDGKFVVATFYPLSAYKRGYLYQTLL

[9] = molecular target: protein kinases (human kinome) (Homo sapiens, UniProt Q9H0K1); format: cell-based; details: experiment wp134
[10] = molecular target: T3, protein kinases (human kinome) (Homo sapiens, UniProt Q9UEE5); format: cell-based; details: STK17A Q9UEE5; experiment wp134
T3 sequence (Q9UEE5 1-414): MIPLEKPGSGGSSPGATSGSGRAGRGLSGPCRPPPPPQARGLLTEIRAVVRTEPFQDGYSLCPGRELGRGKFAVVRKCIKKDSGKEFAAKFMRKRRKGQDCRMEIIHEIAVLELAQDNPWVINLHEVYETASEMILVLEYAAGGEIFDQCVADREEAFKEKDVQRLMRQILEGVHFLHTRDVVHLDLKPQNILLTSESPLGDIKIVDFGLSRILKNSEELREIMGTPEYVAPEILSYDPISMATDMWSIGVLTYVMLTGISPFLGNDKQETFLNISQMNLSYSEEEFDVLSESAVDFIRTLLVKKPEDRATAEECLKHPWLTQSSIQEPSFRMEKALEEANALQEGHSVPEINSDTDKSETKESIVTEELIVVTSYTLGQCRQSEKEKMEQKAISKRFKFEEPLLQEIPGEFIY

[11] = system: protein kinases (human kinome); format: cell-based; details: for kinases the bifunctional compound degrades: as stated for the structure in the embodiments; for Kinase hits: kinases significantly downregulated vs DMSO (fold change cutoff −1.25, P-value<0.01), ≤8 h, 0.1-5 μM degrader, 7 cell lines; for Total no. kinase hits: number of degraded kinases per library compound
[12] = molecular target: extended human kinome (kinase-like proteins) (Homo sapiens, UniProt Q16875); test: Whole cell quantitative proteomics: extended kinome hits; details: Accession Q16875; experiment wp134
[13] = molecular target: protein kinases (human kinome) (Homo sapiens, UniProt Q00537); format: cell-based
[14] = system: protein kinases in MOLT-4 cells; test: Whole cell quantitative proteomics in MOLT-4 cells; details: MOLT-4, 1 μM, 5 h (FIG. 1J)
Protocol: Whole cell multiplexed quantitative proteomics was employed to measure changes in abundance of the proteome in response to treatment with each of the kinase degrader molecules relative to DMSO (Table 1, Appendix I).
Cells were treated with DMSO (biological triplicate) or degrader at indicated dose and time and cells were harvested by centrifugation. […] Precipitated protein was resuspended in 4 M Urea, 50 mM HEPES pH 7.4, followed by dilution to 1 M urea with the addition of 200 mM EPPS, pH 8. Proteins were first digested with LysC (1:50: enzyme:protein) for 12 hours at room temperature. The LysC digestion was diluted to 0.5 M Urea with 200 mM EPPS pH 8 followed by digestion with trypsin (1:50; enzyme:protein) for 6 hours at 37° C. Tandem mass tag (TMT) reagents (Thermo Fisher Scientific) were dissolved in anhydrous acetonitrile (ACN) according to manufacturer's instructions. […] The 10, 11, or 16-plex labeling reactions were performed for 1.5 hours at room temperature and the reaction quenched by the addition of hydroxylamine to a final concentration of 0.3% for 15 minutes at room temperature. The sample channels were combined at a 1:1 ratio, desalted using C18 solid phase extraction cartridges (Waters®) and analyzed by LC-MS for channel ratio comparison. Samples were then combined using the adjusted volumes determined in the channel ratio analysis and dried down in a speed vacuum. The combined sample was then resuspended in 1% formic acid, and acidified (pH 2-3) before being subjected to desalting with C18 SPE (Sep-Pak®, Waters®). Samples were then offline fractionated into 96 fractions by high pH reverse-phase HPLC (Agilent® LC1260) through an aeris peptide xb-c18 column (Phenomenex®) with mobile phase A containing 5% acetonitrile and 10 mM NH4HCO3 in LC-MS grade H2O, and mobile phase B containing 90% acetonitrile and 10 mM NH4HCO3 in LC-MS grade H2O (both pH 8.0). The 96 resulting fractions were then pooled in a non-continuous manner into 24 fractions and desalted using C18 solid phase extraction plates (SOLA®, Thermo Fisher Scientific) followed by subsequent mass spectrometry analysis.
Data were collected using an Orbitrap Fusion™ Lumos™ mass spectrometer (Thermo Fisher Scientific, San Jose, CA, USA) coupled with a Proxeon EASY-nLC™ 1200 LC pump (Thermo Fisher Scientific) or an Orbitrap Eclipse™ Tribrid™ mass spectrometer (Thermo Fisher Scientific, San Jose, CA, USA) coupled with an UltiMate™ 3000 RSLCnano System. Peptides were separated on an EasySpray™ ES803a/ES803a.rev2 75 μm inner diameter microcapillary column (ThermoFisher Scientific).
Data dependent MS2 spectra were acquired in the ion trap with a normalized collision energy (NCE) set at 35%, AGC target set to 1.8×10^4 and a maximum injection time of 120 ms. MS3 scans were acquired in the Orbitrap with HCD collision energy set to 55%. AGC target set to 2×10^5, maximum injection time of 150 ms, resolution at 50,000 and with a maximum synchronous precursor selection (SPS) precursors set to 10.
Proteome Discoverer™ 2.1, 2.2 or 2.4 (Thermo Fisher Scientific) was used for .RAW file processing and controlling peptide and protein level false discovery rates, assembling proteins from peptides, and protein quantification from peptides.

protein kinases (human kinome) (Homo sapiens, UniProt O43683), sequence (O43683 whole entry): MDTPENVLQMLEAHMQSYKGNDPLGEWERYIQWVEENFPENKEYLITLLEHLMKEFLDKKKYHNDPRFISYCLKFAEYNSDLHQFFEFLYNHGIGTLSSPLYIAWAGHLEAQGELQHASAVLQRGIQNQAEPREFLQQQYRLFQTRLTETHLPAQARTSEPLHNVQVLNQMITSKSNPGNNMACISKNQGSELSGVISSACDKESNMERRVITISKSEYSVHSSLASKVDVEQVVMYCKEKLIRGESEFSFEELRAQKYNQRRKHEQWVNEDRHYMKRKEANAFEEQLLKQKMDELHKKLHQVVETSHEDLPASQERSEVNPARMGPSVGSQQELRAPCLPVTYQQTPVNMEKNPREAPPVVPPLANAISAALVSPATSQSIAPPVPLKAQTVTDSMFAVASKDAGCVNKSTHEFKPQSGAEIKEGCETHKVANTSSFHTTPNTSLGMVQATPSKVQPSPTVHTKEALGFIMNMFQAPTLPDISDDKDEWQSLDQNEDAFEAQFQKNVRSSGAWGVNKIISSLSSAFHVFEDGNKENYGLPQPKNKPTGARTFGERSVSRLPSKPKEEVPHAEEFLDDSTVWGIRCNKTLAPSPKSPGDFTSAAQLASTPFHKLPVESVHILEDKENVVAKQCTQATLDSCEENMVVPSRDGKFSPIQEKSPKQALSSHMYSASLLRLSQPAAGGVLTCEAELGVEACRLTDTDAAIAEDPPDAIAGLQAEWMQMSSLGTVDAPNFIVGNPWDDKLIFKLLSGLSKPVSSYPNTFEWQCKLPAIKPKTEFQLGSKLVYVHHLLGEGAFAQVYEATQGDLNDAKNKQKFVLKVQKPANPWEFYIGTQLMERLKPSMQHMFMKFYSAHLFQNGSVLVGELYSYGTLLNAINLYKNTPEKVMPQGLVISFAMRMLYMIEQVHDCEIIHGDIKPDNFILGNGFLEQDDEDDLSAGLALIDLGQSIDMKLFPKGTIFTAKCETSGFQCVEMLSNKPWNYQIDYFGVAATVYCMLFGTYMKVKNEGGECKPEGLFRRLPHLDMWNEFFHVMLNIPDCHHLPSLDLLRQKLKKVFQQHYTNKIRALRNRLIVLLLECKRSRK
protein kinases (human kinome) (Homo sapiens, UniProt P51451), sequence (P51451 whole entry): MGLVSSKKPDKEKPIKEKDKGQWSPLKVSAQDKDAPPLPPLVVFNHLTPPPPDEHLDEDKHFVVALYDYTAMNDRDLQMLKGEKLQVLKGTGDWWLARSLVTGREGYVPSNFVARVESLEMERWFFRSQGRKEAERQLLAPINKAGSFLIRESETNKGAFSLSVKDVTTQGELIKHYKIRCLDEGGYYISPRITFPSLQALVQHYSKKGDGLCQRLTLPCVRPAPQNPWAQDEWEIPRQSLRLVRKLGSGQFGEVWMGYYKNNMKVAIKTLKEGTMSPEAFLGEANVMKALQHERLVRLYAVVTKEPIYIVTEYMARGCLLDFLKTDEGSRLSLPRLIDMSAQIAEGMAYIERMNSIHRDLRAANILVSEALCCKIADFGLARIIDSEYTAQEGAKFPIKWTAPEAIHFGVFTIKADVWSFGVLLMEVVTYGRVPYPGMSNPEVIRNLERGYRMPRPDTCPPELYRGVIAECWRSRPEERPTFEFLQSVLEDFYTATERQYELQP
protein kinases (human kinome) (Homo sapiens, UniProt P53671), sequence (P53671 whole entry): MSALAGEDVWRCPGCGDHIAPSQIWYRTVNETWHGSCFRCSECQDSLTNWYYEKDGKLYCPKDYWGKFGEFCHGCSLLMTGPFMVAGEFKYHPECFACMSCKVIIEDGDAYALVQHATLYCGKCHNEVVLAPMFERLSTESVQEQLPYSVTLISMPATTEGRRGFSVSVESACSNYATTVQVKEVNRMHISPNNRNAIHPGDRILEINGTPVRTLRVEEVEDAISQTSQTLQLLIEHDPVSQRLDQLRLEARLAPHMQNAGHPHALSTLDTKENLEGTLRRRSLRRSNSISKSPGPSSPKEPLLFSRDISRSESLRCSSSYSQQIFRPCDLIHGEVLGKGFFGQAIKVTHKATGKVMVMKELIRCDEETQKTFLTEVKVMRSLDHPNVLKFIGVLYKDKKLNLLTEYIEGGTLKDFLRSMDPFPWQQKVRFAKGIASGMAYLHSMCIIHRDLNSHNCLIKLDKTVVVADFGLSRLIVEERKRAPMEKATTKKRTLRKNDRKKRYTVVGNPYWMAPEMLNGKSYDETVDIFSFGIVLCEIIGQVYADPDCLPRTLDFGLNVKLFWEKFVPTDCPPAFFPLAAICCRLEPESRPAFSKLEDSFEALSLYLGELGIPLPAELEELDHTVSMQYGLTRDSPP
protein kinases (human kinome) (Homo sapiens, UniProt Q9H0K1), sequence (Q9H0K1 whole entry): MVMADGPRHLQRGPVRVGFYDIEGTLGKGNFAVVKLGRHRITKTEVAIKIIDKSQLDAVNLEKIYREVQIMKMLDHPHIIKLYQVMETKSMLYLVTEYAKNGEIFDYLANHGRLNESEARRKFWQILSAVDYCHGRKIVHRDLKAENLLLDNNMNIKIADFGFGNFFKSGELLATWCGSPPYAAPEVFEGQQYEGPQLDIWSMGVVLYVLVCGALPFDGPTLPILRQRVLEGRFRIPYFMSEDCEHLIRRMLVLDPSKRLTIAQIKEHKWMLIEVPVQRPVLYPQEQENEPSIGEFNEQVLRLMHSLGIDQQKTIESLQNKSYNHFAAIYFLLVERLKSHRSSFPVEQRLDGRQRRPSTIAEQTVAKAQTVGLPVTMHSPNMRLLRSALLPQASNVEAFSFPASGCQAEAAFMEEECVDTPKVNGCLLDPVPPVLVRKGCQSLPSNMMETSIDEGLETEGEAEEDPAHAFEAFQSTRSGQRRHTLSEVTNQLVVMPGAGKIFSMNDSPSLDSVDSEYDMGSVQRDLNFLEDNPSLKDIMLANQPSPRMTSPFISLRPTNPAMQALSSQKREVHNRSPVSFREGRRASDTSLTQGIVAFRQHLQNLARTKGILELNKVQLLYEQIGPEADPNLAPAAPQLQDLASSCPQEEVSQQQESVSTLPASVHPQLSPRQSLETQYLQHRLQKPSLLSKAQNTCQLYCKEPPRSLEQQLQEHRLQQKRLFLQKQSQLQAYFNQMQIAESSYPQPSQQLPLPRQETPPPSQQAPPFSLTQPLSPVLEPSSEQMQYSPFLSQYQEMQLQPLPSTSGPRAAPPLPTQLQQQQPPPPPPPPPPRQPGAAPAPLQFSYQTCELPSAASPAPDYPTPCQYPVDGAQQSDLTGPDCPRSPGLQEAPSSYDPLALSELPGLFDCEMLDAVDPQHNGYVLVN
protein kinases (human kinome) (Homo sapiens, UniProt P11802), sequence (P11802 whole entry): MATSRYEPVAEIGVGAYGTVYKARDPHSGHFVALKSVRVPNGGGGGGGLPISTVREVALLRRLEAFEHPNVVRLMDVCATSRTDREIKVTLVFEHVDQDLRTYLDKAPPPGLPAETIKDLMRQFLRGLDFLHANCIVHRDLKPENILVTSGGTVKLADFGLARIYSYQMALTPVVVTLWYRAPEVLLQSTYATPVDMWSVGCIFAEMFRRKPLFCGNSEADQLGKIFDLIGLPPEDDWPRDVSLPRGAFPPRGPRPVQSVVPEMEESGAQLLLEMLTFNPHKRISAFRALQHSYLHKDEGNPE
protein kinases (human kinome) (Homo sapiens, UniProt Q07912), sequence (Q07912 whole entry): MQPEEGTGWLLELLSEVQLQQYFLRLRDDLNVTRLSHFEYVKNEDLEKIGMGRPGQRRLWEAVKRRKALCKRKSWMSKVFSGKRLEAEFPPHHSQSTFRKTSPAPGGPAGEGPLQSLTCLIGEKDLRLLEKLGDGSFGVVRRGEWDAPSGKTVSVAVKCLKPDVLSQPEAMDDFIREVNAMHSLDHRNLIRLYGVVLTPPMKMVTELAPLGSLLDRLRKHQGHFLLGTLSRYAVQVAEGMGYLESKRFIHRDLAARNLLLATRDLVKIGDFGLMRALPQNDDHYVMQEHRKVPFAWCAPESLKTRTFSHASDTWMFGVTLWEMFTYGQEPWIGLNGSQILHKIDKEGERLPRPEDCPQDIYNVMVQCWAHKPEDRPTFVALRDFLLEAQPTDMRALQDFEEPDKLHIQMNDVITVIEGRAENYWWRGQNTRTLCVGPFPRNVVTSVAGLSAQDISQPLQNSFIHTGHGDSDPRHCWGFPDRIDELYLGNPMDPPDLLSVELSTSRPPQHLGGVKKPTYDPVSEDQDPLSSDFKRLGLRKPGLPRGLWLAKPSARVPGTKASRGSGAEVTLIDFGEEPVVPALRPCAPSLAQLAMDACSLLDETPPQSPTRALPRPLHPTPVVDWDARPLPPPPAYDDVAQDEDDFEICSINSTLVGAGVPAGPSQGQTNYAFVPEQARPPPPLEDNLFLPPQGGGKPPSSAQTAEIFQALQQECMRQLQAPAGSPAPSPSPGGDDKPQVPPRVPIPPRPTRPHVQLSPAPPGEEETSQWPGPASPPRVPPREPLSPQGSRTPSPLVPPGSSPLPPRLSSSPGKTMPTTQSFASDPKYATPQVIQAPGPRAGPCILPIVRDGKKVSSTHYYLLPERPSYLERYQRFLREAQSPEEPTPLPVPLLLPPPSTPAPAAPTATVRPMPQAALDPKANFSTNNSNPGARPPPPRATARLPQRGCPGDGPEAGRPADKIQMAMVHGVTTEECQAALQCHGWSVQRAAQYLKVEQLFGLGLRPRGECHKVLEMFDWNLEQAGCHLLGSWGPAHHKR
protein kinases (human kinome) (Homo sapiens, UniProt Q00537), sequence (Q00537 whole entry): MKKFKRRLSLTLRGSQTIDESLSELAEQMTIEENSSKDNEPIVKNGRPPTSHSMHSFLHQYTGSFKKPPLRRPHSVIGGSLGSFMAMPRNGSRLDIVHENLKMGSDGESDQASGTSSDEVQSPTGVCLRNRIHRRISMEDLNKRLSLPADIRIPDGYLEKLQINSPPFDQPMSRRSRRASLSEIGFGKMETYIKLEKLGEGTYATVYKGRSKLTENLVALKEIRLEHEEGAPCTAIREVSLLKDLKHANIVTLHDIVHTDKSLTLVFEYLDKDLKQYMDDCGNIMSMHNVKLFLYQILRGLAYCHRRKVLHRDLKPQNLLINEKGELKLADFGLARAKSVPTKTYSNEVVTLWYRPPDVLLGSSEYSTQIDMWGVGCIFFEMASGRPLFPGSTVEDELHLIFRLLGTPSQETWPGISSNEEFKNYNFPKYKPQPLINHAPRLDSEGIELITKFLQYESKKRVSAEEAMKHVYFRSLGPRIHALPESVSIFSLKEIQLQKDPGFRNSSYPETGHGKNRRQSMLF

CN[C@@H](C)C(=O)N[C@H](C(=O)N1CCC[C@H]1c1nc(C(=O)c2cccc(OCCCCCn3cc(CN4CCN(c5ccc(Nc6ncc7c(n6)N(C)C(=O)N(c6cc(NC(=O)c8cccc(C(F)(F)F)c8)ccc6C)C7)cn5)CC4)nn3)c2)cs1)C1CCCCC1 [DB118430]
logFC ([1]; experiment wp134): −0.3866
logFC ([1]; experiment wp152): −0.3814
logFC BUB1 (O43683) ([1]; Experiment wp134): −0.3866
logFC BUB1 (O43683) ([1]; Experiment wp152): −0.3814
logFC CDK4 (P11802) [2]: −0.3644
logFC [3]: −0.3601
logFC [4]: −0.5666
logFC ([4]; direction down): −0.5666
logFC BLK ([5]; experiment wp134): −0.5826
logFC BLK ([5]; experiment wp152): −0.9023
logFC of BLK (P51451) ([5]; Experiment wp134): −0.5826
logFC of BLK (P51451) ([5]; Experiment wp152): −0.9023
logFC LIMK2 ([6]; LIMK2 (P53671), down): −0.4571
logFC of LIMK2 ([6]; LIMK2 P53671): −0.4571
logFC TNK2 (Q07912-1) ([7]; Experiment wp134, direction down): −0.575
logFC TNK2 ([7]; TNK2 (Q07912-1), experiment wp134): −0.575
logFC UHMK1 ([8]; Accession Q8TAS1, direction down): −0.4944
logFC UHMK1 ([8]; UHMK1 (Q8TAS1)): −0.4944
logFC of SIK2 ([9]; Accession Q9H0K1): −0.3803
logFC SIK2 (Q9H0K1) ([9]; direction of change down): −0.3803
logFC [10]: −0.3497
logFC STK17A [10]: −0.3497
kinases the bifunctional compound degrades [11]: BLK, BUB1, CDK4, LIMK2, SIK2, STK17A, TEC, TNK2, and UHMK1
Kinase hits [11]: BLK, BUB1, CDK4, LIMK2, SIK2, STK17A, TEC, TNK2, UHMK1
Total no. kinase hits [11]: 9
logFC PFKFB3 [12]: −0.4616

Cc1ncsc1-c1ccc([C@H](C)NC(=O)[C@@H]2C[C@@H](O)CN2C(=O)[C@@H](NC(=O)CCOCCOCCNc2nccc(-c3sc(C(C)(C)C)nc3-c3cccc(NS(=O)(=O)c4c(F)cccc4F)c3F)n2)C(C)(C)C)cc1 [DD-03-156, (2S,4R)-1-((S)-2-(3-(2-(2-((4-(2-(tert-butyl)-4-(3-((2,6-difluorophenyl)sulfonamido)-2-fluorophenyl)thiazol-5-yl)pyrimidin-2-yl)amino)ethoxy)ethoxy)propanamido)-3,3-dimethylbutanoyl)-4-hydroxy-N—((S)-1-(4-(4-methylthiazol-5-yl)phenyl)ethyl)pyrrolidine-2-2377 carboxamide]
preference for degrading CDK17 [13]: strong preference for degrading CDK17
kinases the bifunctional compound degrades [11]: CDK17, LIMK1, and LIMK2
Kinase hits [11]: CDK17, LIMK1, LIMK2
Total no. kinase hits [11]: 3
degradation profile (potency and selectivity) [14]: potent and selective degradation of only CDK17 and LIMK2; also recorded: exquisite
